Assay results reported in patent publication US11273168B2, “Methods of treating anxiety by administering a substituted quinolone” (OTSUKA PHARMACEUTICAL CO., LTD., priority 2010, dated 2022).
Read-outs that look alike come from different tables or passages of the source.

Key:
Type in all cases: biochemical
Dopamine (DA) uptake = target: T1, Dopamine (DA) uptake (Rattus norvegicus, UniProt P23977); experiment: Dopamine (DA) uptake inhibitory activity using rat brain synaptosome (corpus striatum); conditions: tritium-labeled DA 2 nM, 37° C. ten minutes, read-out: 50% Inhibitory concentration
T1 construct: The suspension was used as a crude synaptosome fraction; from tissue; host or cells: rat (male Wistar) corpus striatum, crude synaptosome fraction
Method: Measurement of Dopamine (DA) Uptake Inhibitory Activity of Test Compound Using Rat Brain Synaptosome
(§1) Male Wistar rats were decapitated, and their brains were removed and dissected to remove the corpus striatum. The separated corpus striatum was placed in a 20-fold weight of a 0.32 molarity (M) sucrose solution and homogenized with a potter homogenizer. The homogenate was centrifuged at 1000 g at 4° C. for 10 minutes, and the supernatant was further centrifuged at 20000 g at 4° C. for 20 minutes. […] The suspension was used as a crude synaptosome fraction.
Uptake reaction was performed using each well of a 96-well round-bottom plate and a 200 μl volume in total of a solution containing pargyline (final concentration: 10 μM) and ascorbic acid (final concentration: 0.2 mg/mil).
(§2) Specifically, a solvent, unlabeled DA, and serially diluted test compounds were separately added to the wells, and the synaptosome fraction was added in an amount 1/10 of the final volume to each well and preincubated at 37° C. for 10 minutes. Then, a tritium-labeled DA solution (final concentration: 2 nM) was added thereto to initiate uptake reaction at 37° C. Ten minutes later, the uptake reaction was terminated by suction filtration through a 96-well glass fiber filter plate. Furthermore, the filter was washed with a cold saline and then sufficiently dried. MicroScint-O (PerkinElmer Co., Ltd.) was added thereto, and the residual radioactivity on the filter was measured.
(§3) An uptake value obtained by the addition of only the solvent was defined as 100%, and an uptake value (nonspecific uptake value) obtained by the addition of the unlabeled DA (final concentration: 10 μM) was defined as 0%. A 50% inhibitory concentration was calculated from the test compound concentrations and inhibitory activities thereat.

[1] = target: Norepinephrine (NE) uptake (Rattus norvegicus, UniProt Q9WTR4); experiment: Norepinephrine (NE) uptake inhibitory activity using rat brain synaptosome (hippocampus)
Method: Measurement of Norepinephrine (NE) Uptake Inhibitory Activity of Test Compound Using Rat Brain Synaptosome
Male Wistar rats were decapitated, and their brains were removed and dissected to remove the hippocampus. The separated hippocampus was placed in a 20-fold weight of a 0.32 molarity (M) sucrose solution and homogenized with a potter homogenizer. The homogenate was centrifuged at 1000 g at 4° C. for 10 minutes, and the supernatant was further centrifuged at 20000 g at 4° C. for 20 minutes. The pellet was suspended in an incubation buffer (20 mM HEPES buffer (pH 7.4) containing 10 mM glucose, 145 mM sodium chloride, 4.5 mM potassium chloride, 1.2 mM magnesium chloride, and 1.5 mM calcium chloride). The suspension was used as a crude synaptosome fraction.
(§4) Uptake reaction was performed using each well of a 96-well round-bottom plate and a 200 μl volume in total of a solution containing pargyline (final concentration: 10 μM) and ascorbic acid (final concentration: 0.2 mg/ml).
as §2, with “NE,” for “DA,”, “NE” for “DA”, “12” for “2”
as §3, with “NE” for “DA”

Serotonin (5-HT) uptake = target: T2, Serotonin (5-HT) uptake (Rattus norvegicus, UniProt P31652); experiment: Serotonin (5-HT) uptake inhibitory activity using rat brain synaptosome (frontal cortex); conditions: tritium-labeled 5-HT 8 nM, 37° C. 10 minutes
T2 construct: The suspension was used as a crude synaptosome fraction; from tissue; host or cells: rat (male Wistar) frontal cortex, crude synaptosome fraction
Method: Measurement of Serotonin (5-HT) Uptake Inhibitory Activity of Test Compound Using Rat Brain Synaptosome
as §1, with “frontal cortex.” for “corpus striatum.”, “frontal cortex” for “corpus striatum”
as §4
as §2, with “5-HT,” for “DA,”, “5-HT” for “DA”, “8” for “2”, “10” for “Ten”
as §3, with “5-HT” for “DA”, “50%,” for “50%”

[2] = tritium-labeled NE 12 nM, 37° C. ten minutes, read-out: 50% inhibitory concentration
[3] = read-out: 50% Inhibitory concentration

T1 sequence (P23977 whole entry): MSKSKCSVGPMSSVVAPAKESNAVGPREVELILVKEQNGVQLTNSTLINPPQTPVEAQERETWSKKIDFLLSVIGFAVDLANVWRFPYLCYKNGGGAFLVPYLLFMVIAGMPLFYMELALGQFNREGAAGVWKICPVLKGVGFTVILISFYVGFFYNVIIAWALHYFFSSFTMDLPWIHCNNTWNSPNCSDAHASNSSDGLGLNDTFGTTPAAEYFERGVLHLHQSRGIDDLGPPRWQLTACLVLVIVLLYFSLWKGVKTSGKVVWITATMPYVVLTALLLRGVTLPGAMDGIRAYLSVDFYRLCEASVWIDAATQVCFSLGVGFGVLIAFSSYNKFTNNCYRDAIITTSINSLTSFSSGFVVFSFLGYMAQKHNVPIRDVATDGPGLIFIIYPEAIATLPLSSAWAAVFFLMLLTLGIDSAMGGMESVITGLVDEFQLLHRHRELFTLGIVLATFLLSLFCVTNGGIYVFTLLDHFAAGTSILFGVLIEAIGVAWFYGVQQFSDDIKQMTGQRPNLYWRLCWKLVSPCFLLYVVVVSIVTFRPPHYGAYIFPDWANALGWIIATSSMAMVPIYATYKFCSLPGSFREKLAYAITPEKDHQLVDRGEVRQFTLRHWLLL
T2 sequence (P31652 whole entry): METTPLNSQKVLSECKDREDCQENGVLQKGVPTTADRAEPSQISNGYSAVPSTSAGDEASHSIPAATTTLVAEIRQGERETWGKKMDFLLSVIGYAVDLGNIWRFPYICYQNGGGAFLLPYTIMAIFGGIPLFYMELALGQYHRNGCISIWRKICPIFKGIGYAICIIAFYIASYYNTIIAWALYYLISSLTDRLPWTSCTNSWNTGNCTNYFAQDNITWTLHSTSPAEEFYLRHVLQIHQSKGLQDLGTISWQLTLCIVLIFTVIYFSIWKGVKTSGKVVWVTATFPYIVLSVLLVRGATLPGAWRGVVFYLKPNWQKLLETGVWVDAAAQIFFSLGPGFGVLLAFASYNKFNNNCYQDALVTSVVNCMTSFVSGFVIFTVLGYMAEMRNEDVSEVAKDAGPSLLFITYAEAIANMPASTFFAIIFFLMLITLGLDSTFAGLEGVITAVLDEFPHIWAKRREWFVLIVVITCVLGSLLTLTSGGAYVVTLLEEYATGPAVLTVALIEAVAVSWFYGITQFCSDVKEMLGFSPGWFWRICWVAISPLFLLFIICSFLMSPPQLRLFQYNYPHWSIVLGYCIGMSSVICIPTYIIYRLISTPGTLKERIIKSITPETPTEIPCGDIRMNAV

SMILES	IC50 (Dopamine (DA) uptake) [nM]	IC50 [1, 2] [nM]	IC50 (Serotonin (5-HT) uptake; [3]) [nM]	IC50 ([1]; read-out: 50% inhibitory concentration, tritium-labeled NE 12 nM, 37° C. ten minutes) [nM]	IC50 (Serotonin (5-HT) uptake; 50% Inhibitory concentration) [nM]
CC1(C)CN(c2ccc(OC(F)F)c(Cl)c2)[C@@H]2CCCC[C@H]2N1 [Example 1026]	12.3	4.2	2.4		
c1cc(N2CC3(CCC3)N[C@H]3CCCC[C@@H]32)c2ccoc2c1 [Example 1047]	1.1	0.7	0.7		
Clc1ccc(N2CCN[C@H]3CCCC[C@@H]32)c2ccoc12 [Example 1083]	53.7	2.5	5.1		
C[C@@H]1CN(c2ccc(F)c3occc23)[C@H]2CCCC[C@@H]2N1 [Example 1124]	49.3	0.8	7.1		
C[C@@H]1CN(c2ccc(F)c3ccccc23)[C@H]2CCCC[C@@H]2N1 [Example 1318]	83.5	6.6	40.7		
C[C@@H]1CN(c2ccc3ncsc3c2)[C@H]2CCCC[C@@H]2N1 [Example 1326]	91.8	1.8	37.8		
C[C@@H]1CN(c2ccc(OC(F)F)c(F)c2)[C@H]2CCCC[C@@H]2N1 [Example 1534]	215			4	38.1

Continued, in another order:

IC50 (Dopamine (DA) uptake) [nM]	IC50 [1, 2] [nM]	IC50 (Serotonin (5-HT) uptake; [3]) [nM]	SMILES	IC50 ([1]; read-out: 50% inhibitory concentration, tritium-labeled NE 12 nM, 37° C. ten minutes) [nM]	IC50 (Serotonin (5-HT) uptake; 50% Inhibitory concentration) [nM]
69.5	31.9	18.7	COc1cc2ccc(N3CC(C)(C)N[C@@H]4CCCC[C@H]43)cc2cc1C#N [Example 962]		
173	47.6	6.5	CC1(C)CN(c2ccc(OC(F)F)c3occc23)[C@@H]2CCCC[C@H]2N1 [Example 983]		
38.6	8.7	4.8	CC1(C)CN(c2ccc3[nH]c(C#N)cc3c2)[C@@H]2CCCC[C@H]2N1 [Example 993]		
29.9	0.7	8.5	C[C@@H]1CN(c2ccc3sccc3c2)[C@H]2CCCC[C@@H]2N1 [Example 1121]		
73	39.6	84.2	Cc1noc(-c2ccc(N3C[C@@H](C)N[C@H]4CCCC[C@@H]43)cc2)n1 [Example 1333]		
113	42.7	6.8	C[C@@H]1CN(c2ccc3ccc(C#N)cc3c2)[C@H]2CCCC[C@@H]2N1 [Example 1341]		
